Laboratory results: publication PMC10767194 (The Journal of Biological Chemistry, 2023)
Read-outs that look alike come from different tables or passages of the source.

Key:
[1] = biological target: T1, Cdk12/CycK (Homo sapiens, UniProt Q9NYV4); assay: radioactive in vitro kinase assay, Cdk12/CycK; assay type: biochemical; conditions: 0, 0.1, 1, 10, 100 μM compound, 0.2 μM Cdk12, 0.2 mM ATP, His-c-Myc, 20 min
T1 construct: GST (TEV site) (N, cleaved yes); made in house; host or cells: Sf9 insect cells, co-expressed with S. cerevisiae CAK1
Protocol: (§1) To a concentration of 0.2 μM kinase and 0.2 mM ATP, a compound concentration ranging from 0.1 nM to 1 mM was applied. Kinase reactions were started by the addition of 100 μM CTD peptide containing three hepta-repeats continuously prephosphorylated at position S7 (pS7-CTD[3]) and terminated after 60 min incubation time. In vitro IC50-values were determined by applying a sigmoidal fit to dose-response measurements (Fig. 1A).
Cdk12 kinase (0.2 μM) in the presence of 0.2 mM ATP were supplemented with respective compounds at concentrations of 0, 0.1, 1, 10, and 100 μM for 5 min. Upon addition of 50 μM His-c-Myc substrate the kinase assay reaction was conducted for 20 min.
Radioactive kinase activity assays were performed in a total volume of 15 μl per sample in kinase assay buffer (50 mM Hepes/pH 7.6, 34 mM KCl, 7 mM MgCl2, 5 mM β-glycerol phosphate, and 2.5 mM dithioerythritol). Preincubation of 0.2 μM or 0.02 μM recombinant protein kinase with indicated concentrations of respective inhibitor and 0.2 to 2 mM ATP containing 0.45 mCi [^32P]-γ-ATP/ml (PerkinElmer) was carried out for 5 min. Kinase reactions were started by addition of substrate protein (10 μM GST-Rb1 for Cdk4/CycD3, 10 μM GST-CTD[52] for Cdk7/CycH/MAT1, 50 μM His-c-Myc for all others) and incubated for 20 min at 30 °C in a shaking incubator at 300 rpm. For pS7-CTD[3] peptide, the substrate concentration was increased to 100 μM and assays were performed for 60 min. Reactions were terminated by the addition of EDTA to a final concentration of 50 mM. Reaction samples were separately spotted onto Amersham Protran nitrocellulose membranes (GE HealthCare) and subsequently washed three times for 5 min in PBS. Samples were transferred to 4 ml liquid scintillation vials and 2 ml liquid scintillator (Ultima Gold) were added. Radioactive counts were determined in a Beckman Liquid Scintillation Counter (Beckman Coulter) for 1 min. […] For analysis of dose response measurements and IC50 value determination, data of inhibitor-supplemented samples were normalized to DMSO solvent controls and their activity plotted against the inhibitor concentration. IC50 values were extracted from triplicate measurements by sigmoidal curve fitting using DataGraph (v. 5.0; https://www.visualdatatools.com/DataGraph/) or were determined by applying the Morrison quadratic equation for tight binding inhibitors using GraphPad Prism 10 (https://www.graphpad.com/) ([40]).

[2] = biological target: T2, Cdk13/CycK (Homo sapiens, UniProt Q14004); assay: radioactive in vitro kinase assay, Cdk13/CycK; assay type: biochemical
T2 construct: The kinase domain of human Cdk13 (residues 694–1039, UniProt Q14004); made in house; host or cells: Sf9 insect cells, co-expressed with CAK1
Protocol: as §1, with “1A). […] The Michaelis–Menten constants (KM) for ATP were determined as 17.5 μM for Cdk12/CycK and 12.6 μM for Cdk13/CycK, respectively. […] These values are in accordance with the values derived from sigmoidal curve fitting.” for “1A).”
Radioactive kinase activity assays were performed in a total volume of 15 μl per sample in kinase assay buffer (50 mM Hepes/pH 7.6, 34 mM KCl, 7 mM MgCl2, 5 mM β-glycerol phosphate, and 2.5 mM dithioerythritol). […] Radioactive counts were determined in a Beckman Liquid Scintillation Counter (Beckman Coulter) for 1 min. […] IC50 values were extracted from triplicate measurements by sigmoidal curve fitting using DataGraph (v. 5.0; https://www.visualdatatools.com/DataGraph/) or were determined by applying the Morrison quadratic equation for tight binding inhibitors using GraphPad Prism 10 (https://www.graphpad.com/) ([40]).

[3] = system: T3, Cdk7/CycH; assay: radioactive in vitro kinase assay, Cdk7/CycH; assay type: biochemical, human; conditions: 0, 0.1, 1, 10, 100 μM compound, 0.2 μM kinase, 0.2 mM ATP
T3 construct: Full-length, human, WT Cdk7 (residues 1–346, UniProt P50613); made in house; host or cells: Sf9 insect cells
Protocol: (§2) Radioactive kinase activity assays were performed in a total volume of 15 μl per sample in kinase assay buffer (50 mM Hepes/pH 7.6, 34 mM KCl, 7 mM MgCl2, 5 mM β-glycerol phosphate, and 2.5 mM dithioerythritol). Preincubation of 0.2 μM or 0.02 μM recombinant protein kinase with indicated concentrations of respective inhibitor and 0.2 to 2 mM ATP containing 0.45 mCi [^32P]-γ-ATP/ml (PerkinElmer) was carried out for 5 min. Kinase reactions were started by addition of substrate protein (10 μM GST-Rb1 for Cdk4/CycD3, 10 μM GST-CTD[52] for Cdk7/CycH/MAT1, 50 μM His-c-Myc for all others) and incubated for 20 min at 30 °C in a shaking incubator at 300 rpm. For pS7-CTD[3] peptide, the substrate concentration was increased to 100 μM and assays were performed for 60 min. Reactions were terminated by the addition of EDTA to a final concentration of 50 mM. […] Radioactive counts were determined in a Beckman Liquid Scintillation Counter (Beckman Coulter) for 1 min. […] IC50 values were extracted from triplicate measurements by sigmoidal curve fitting using DataGraph (v. 5.0; https://www.visualdatatools.com/DataGraph/) or were determined by applying the Morrison quadratic equation for tight binding inhibitors using GraphPad Prism 10 (https://www.graphpad.com/) ([40]).

[4] = system: Cdk8/CycC; assay: radioactive in vitro kinase assay, Cdk8/CycC; assay type: biochemical, human; conditions: 0, 0.1, 1, 10, 100 μM compound, 0.2 μM kinase, 0.2 mM ATP
Protocol: as §2

[5] = system: T4, Cdk4/CycD3; assay: radioactive in vitro kinase assay, Cdk4/CycD3; assay type: biochemical, human; conditions: 0, 0.1, 1, 10, 100 μM compound, 0.2 μM kinase, 0.2 mM ATP
T4 construct: GST (of the complex); made in house; host or cells: Sf9 insect cells
Protocol: as §2

[6] = system: T5, HIPK2; assay: radioactive in vitro kinase assay, HIPK2; assay type: biochemical, human; conditions: 0, 0.1, 1, 10, 100 μM compound, 0.2 μM kinase, 0.2 mM ATP
T5 construct: human HIPK2 (residues 160–563, UniProt Q9H2X6); made in house; host or cells: Sf9 insect cells
Protocol: as §2

[7] = biological target: T2, Cdk13/CycK; assay: SPR single-cycle kinetics, active Cdk13*/CycK; conditions: T-loop phosphorylated active kinase (CAK1 coexpressed), 1:1 binding model
Protocol: The protein kinases were immobilized on a CM5 chip using the amine-coupling method. […] The fully active and T-loop phosphorylated kinase preparations of Cdk12∗/CycK and Cdk13∗/CycK were obtained through coexpression with Cdk-activating kinase 1 (CAK1) from Saccharomyces cerevisiae. […] For comparison, we measured the affinity of NVP-2 for active kinases Cdk12∗/CycK and its proposed target Cdk9/CycT1 by SPR.
SPR experiments were conducted on a Biacore 8K (Cytiva) device. The system was equilibrated in running buffer (20 mM Tris pH 8, 150 mM NaCl, 1 mM tris(2-carboxyethyl)phosphine, 0.1 mM MgCl2, 0.05% Tween20, and 2% DMSO) at 25 °C. Flow cell 1 and 2 surfaces of a CM5 sensor chip (Cytiva) were conditioned with 50 mM NaOH at a flow rate of 30 μl/min for 15 s and subsequently activated with a 1:1 mix of 0.1 M N-hydroxysuccinimide (NHS) and 0.1 M 3-(N,N-dimethylamino) propyl-N-ethyl-carbodiimide (EDC) at a flow rate of 10 μl/min for 7 min. The flow system was washed with 1 M enthanolamine (pH 8). WT and mutant kinases Cdk12/CycK, Cdk13/CycK and Cdk9/CycT1 were diluted in Mes (pH 6.5) to a final concentration of 2 μM. Immobilization of kinases was performed in running buffer without DMSO using the amine coupling method on flow cell 2 surface for 160 s at a flow rate of 10 μl/min. Free binding sites were blocked with 1 M ethanolamine pH 8.0 (10 μl/min) for 7 min. […]

T2 sequence (Q14004 694-1039): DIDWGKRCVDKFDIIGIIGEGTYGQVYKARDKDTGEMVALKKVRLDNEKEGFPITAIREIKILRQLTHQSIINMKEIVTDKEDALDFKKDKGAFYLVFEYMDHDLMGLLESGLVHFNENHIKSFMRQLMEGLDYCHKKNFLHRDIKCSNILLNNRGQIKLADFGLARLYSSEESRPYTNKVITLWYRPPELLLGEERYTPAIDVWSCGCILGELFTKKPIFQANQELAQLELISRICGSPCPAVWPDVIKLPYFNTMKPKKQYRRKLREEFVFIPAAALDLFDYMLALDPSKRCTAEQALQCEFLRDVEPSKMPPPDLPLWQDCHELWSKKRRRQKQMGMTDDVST
T2 sequence (O75909 1-267 partner limits assumed): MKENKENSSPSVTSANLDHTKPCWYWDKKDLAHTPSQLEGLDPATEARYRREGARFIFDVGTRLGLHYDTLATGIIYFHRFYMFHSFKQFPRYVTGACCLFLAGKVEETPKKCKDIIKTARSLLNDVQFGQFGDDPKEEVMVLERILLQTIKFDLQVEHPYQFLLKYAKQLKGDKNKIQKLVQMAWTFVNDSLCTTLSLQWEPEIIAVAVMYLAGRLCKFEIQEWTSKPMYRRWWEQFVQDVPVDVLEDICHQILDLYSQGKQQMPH
T1 sequence (Q9NYV4 714-1063): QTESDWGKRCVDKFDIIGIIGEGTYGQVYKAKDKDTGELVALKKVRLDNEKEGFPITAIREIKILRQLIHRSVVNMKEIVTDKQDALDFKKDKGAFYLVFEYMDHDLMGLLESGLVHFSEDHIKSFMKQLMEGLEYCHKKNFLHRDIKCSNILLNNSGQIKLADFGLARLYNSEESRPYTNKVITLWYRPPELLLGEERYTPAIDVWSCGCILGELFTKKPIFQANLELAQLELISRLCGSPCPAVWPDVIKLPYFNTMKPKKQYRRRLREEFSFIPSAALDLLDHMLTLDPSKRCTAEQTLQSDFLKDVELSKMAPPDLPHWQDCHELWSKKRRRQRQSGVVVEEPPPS
T1 sequence (O75909 1-267 partner limits assumed): as the sequence (O75909 1-267 partner limits assumed) above

With Cn1cc(-n2cnc3c(NCc4nc5cc(Cl)c(Cl)cc5[nH]4)nc(N4CCOCC4)nc32)cn1 [SR-4835] the “inhibitory effect on Cdk12/CycK activity, in words” value [1] was “modest effects”, the IC50 ([2]; 0.2 μM and 0.02 μM kinase, c-Myc substrate, Morrison quadratic equation fit, read-out: IC50 Cdk13/CycK, Morrison quadratic equation) was 366 to 400 nM and the IC50 ([2]; 0.2 μM kinase, 0.2 mM ATP, 100 μM pS7-CTD[3], 60 min, sigmoidal fit, read-out: IC50 Cdk13/CycK on pS7-CTD[3]) was 366 nM. The “inhibition of Cdk7 activity” value [3] was “no inhibitory activity”, the “inhibition of Cdk8 activity” value [4] was “no inhibitory activity” and the “inhibition of Cdk4/CycD3 activity” value [5] was “minimal decrease in kinase activity”. For the same compound, the “inhibition of HIPK2 activity” value [6] was “not inhibited” and the Kd [7] was 168 nM.
